From patent publication US12146889B1, “Compounds and combinations thereof for treating neurological and psychiatric conditions” (priority 2022, dated 2024)
Structures can show the parent of a compound that is named as a salt. Where two headings read alike, the source gives them in different places.

Key:
[1] = pharmacokinetics in moderate renal impairment
Text: (§1) Data are GMRs and 90% CIs. References used are the matched healthy subjects for renal and hepatic impairment studies, and extensive or ultra-extensive CYP2D6 metabolizers respectively.

[2] = pharmacokinetics in moderate hepatic impairment; assay type: in vivo, human; conditions: for AUC0-12 and Cmax in moderate hepatic impairment compared with healthy patients: Group 2; for AUC Change Relative to Reference (90% CI); mean ratio of AUC0-12 / Cmax Change Relative to Reference (90% CI); mean ratio of Cmax: Moderate Hepatic Impairment (Group 2), GMR vs matched healthy subjects, after 8 days of twice daily dosing, hydrobromide monohydrate
[3] = bupropion and its metabolites; cited from earlier work
[4] = solubility of the powder in water
[5] = pharmacokinetics in CYP2D6 poor metabolizers
Text: Approximately 7% to 10% of Caucasians and 3% to 8% of African Americans lack the capacity to metabolize CYP2D6 substrates and are classified as poor metabolizers.
as §1

[6] = pharmacokinetics of the subject combination at steady state; conditions: co-administered with bupropion
[7] = co-administration with strong CYP2D6 inhibitor (paroxetine)
[8] = effect of food on pharmacokinetics of the subject combination
[9] = tested on: patients with treatment-resistant depression or MDD; conditions: cited from earlier work
[10] = tested on: patients with treatment-resistant depression or MDD; conditions: cited from earlier work; remark: listed apart in the source
[11] = 7 subjects with moderate (GFR 30-60 mL/min) renal impairment vs 6 matched controls
[12] = patients having moderate renal impairment, tablets of Example 4
[13] = 3 poor metabolizers, subject combination
[14] = 20 mg of paroxetine, tablet of Example 4 twice daily, vs tablet twice daily without paroxetine
[15] = flexible-dose study, patients ≥65 years with treatment-resistant depression, 28 to 84 mg + oral AD, N = 72

CC(NC(C)(C)C)C(=O)c1cccc(Cl)c1.Cl (racemic) [bupropion, (±)-1-(3-chlorophenyl)-2-[(1,1-dimethylethyl)amino]-1-propanone hydrochloride]
increase in AUC0-12 in moderate renal impairment ([1]; human, in vivo): 1.80 fold | increase in Cmax in moderate renal impairment ([1]; human, in vivo): 1.87 fold | increase of exposure in moderate renal impairment vs matched controls with normal renal function ([1]; human, in vivo): approximately 2 fold | reduction of clearance in moderate renal impairment vs matched controls ([1]; human, in vivo): 50% | AUC0-12 and Cmax in moderate hepatic impairment compared with healthy patients [2]: not significantly different | presence in human milk [3]: presence of bupropion and its metabolites in human milk | solubility in water [4]: highly soluble in water

COc1ccc2c(c1)[C@]13CCCC[C@@H]1[C@H](C2)N(C)CC3 [dextromethorphan, morphinan, 3-methoxy-17-methyl-, (9α, 13α, 14α), hydrobromide monohydrate]
increase of exposure in moderate renal impairment vs matched controls with normal renal function [1, 11]: approximately 2 fold | reduction of clearance in moderate renal impairment vs matched controls [1, 11]: 50% | increase in AUC0-12 in moderate renal impairment [1, 12]: 2.21 fold | increase in Cmax in moderate renal impairment [1, 12]: 2.10 fold | AUC0-12 and Cmax in moderate hepatic impairment compared with healthy patients [2]: not significantly different | AUC Change Relative to Reference (90% CI); mean ratio of AUC0-12 [2]: 1.17 | Cmax Change Relative to Reference (90% CI); mean ratio of Cmax [2]: 1.21 | AUC Change Relative to Reference (90% CI); mean ratio of AUC0-12 ([2]; listed as DM): 1.17 (0.85, 1.61) | Cmax Change Relative to Reference (90% CI); mean ratio of Cmax ([2]; listed as DM): 1.21 (0.90, 1.62) | increase in AUC0-12 in poor metabolizers compared to extensive metabolizers [5, 13]: ~3.4 fold | increase in Cmax in poor metabolizers compared to extensive metabolizers [5, 13]: ~3 fold | steady state plasma concentrations in poor metabolizers vs non-poor metabolizers ([5]; 12 poor metabolizers treated with the subject combination in efficacy trials): generally higher than exposures for non-poor metabolizers | plasma concentrations in CYP2D6 poor metabolizers compared to patients who are not CYP2D6 poor metabolizers ([5]; subject composition): increases plasma concentrations of dextromethorphan | solubility in water [4]: sparingly soluble in water | dose proportionality of changes in AUC and Cmax at steady state ([6]; varying doses of bupropion (75 to 150 mg)): less than dose-proportional changes | dose proportionality of changes in AUC and Cmax at steady state ([6]; varying doses of dextromethorphan (30 to 60 mg)): greater than dose-proportional changes | increase of AUC0-12 with concomitant paroxetine [7, 14]: 2.69 fold | increase of Cmax with concomitant paroxetine [7, 14]: 2.38 fold | increase of overall exposure by paroxetine ([7]; co-administration of paroxetine and the subject combination, 29 healthy volunteers): 2.5 fold | plasma concentrations on concomitant use of the subject combination with strong CYP2D6 inhibitor ([7]; in vivo): increases plasma concentrations of dextromethorphan | decrease of AUC0-12 when administered with food [8]: 14%

CN[C@]1(c2ccccc2Cl)CCCCC1=O [esketamine, Esketamine]
Incidence of Sedation (MOAA/S score <5) ([9]; fixed-dose study, patients <65 years with treatment-resistant depression, 56 mg + oral AD, N = 114): 50% | Incidence of Sedation (MOAA/S score <5) ([9]; fixed-dose study, patients <65 years with treatment-resistant depression, 84 mg + oral AD, N = 114): 61% | Incidence of Sedation (MOAA/S score <5) [9, 15]: 49% | Incidence of Dissociation (CADSS total score >4 and change >0) ([10]; fixed-dose study, patients <65 years with treatment-resistant depression, 56 mg + oral AD, N = 113): 61% | Incidence of Dissociation (CADSS total score >4 and change >0) ([10]; fixed-dose study, patients <65 years with treatment-resistant depression, 84 mg + oral AD, N = 116): 69% | Incidence of Dissociation (CADSS total score >4 and change >0) [10, 15]: 75%
